A short description of series [1]: Permeability of the compound by measuring lambda maximum incubated for 18 hrs by PAMPA method. Type of series: ADME. The note with it: read-out: permeability. (In general: PAMPA measures passive passage across an artificial lipid membrane.)
Series [2] has as its target T1, Fatty-acid amide hydrolase 1 (Homo sapiens, UniProt O00519).
T1 sequence (O00519 whole entry): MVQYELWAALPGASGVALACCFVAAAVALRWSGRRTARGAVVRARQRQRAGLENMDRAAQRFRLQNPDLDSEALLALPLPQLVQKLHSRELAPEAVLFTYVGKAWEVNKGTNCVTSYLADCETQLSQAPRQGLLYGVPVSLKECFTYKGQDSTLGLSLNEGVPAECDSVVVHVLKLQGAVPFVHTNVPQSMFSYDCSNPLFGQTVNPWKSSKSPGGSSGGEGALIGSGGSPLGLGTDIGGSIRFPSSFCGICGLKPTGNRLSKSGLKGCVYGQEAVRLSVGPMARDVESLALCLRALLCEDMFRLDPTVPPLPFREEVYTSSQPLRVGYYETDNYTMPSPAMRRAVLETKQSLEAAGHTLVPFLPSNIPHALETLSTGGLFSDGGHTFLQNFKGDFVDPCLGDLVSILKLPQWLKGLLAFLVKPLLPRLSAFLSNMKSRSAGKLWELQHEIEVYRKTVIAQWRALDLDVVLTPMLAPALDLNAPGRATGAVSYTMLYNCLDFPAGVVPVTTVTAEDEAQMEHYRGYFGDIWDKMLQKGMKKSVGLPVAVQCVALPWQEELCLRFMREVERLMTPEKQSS
Kind of series: Inhibition of FAAH (unknown origin) by fluorescence based method.

A further series has as its target T2, Monoglyceride lipase (Homo sapiens, UniProt Q99685).
T2 sequence (Q99685 whole entry): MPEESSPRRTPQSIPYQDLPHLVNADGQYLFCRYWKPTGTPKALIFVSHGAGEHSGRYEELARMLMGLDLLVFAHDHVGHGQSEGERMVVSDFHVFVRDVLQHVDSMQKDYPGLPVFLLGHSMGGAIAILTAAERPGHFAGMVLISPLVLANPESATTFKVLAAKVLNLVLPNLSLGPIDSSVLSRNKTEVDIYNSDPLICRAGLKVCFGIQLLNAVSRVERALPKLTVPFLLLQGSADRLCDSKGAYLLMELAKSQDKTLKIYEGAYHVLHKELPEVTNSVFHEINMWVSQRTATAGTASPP
Kind of series: Inhibition of MAGL (unknown origin) by fluorescence based method.

In series [3] the target is T3, Fatty-acid amide hydrolase 1 (Homo sapiens) (UniProt O00519).
T3 sequence (whole entry): T1 sequence (O00519 whole entry)
Kind of series: Inhibition of recombinant human FAAH assessed as blockage of […] labelling at 100 uM by ABPP assay.

The target of series [4] is T4, Monoglyceride lipase (Rattus norvegicus) (UniProt Q8R431).
T4 sequence (whole entry): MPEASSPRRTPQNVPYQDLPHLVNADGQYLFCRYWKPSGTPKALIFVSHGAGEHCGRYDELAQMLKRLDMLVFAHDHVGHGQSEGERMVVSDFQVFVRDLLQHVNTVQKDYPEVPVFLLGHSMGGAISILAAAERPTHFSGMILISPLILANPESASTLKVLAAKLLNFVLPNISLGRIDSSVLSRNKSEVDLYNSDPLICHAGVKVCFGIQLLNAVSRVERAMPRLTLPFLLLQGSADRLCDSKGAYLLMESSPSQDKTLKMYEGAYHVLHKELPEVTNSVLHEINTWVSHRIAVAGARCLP
Nature of the series: Inhibition of MAGL in rat eye homogenate assessed as blockage of […] labelling by ABPP assay. Type of series: tissue-based.

Series [5] concerns the target T5, Fatty-acid amide hydrolase 1 (Rattus norvegicus) (UniProt P97612).
T5 sequence (whole entry): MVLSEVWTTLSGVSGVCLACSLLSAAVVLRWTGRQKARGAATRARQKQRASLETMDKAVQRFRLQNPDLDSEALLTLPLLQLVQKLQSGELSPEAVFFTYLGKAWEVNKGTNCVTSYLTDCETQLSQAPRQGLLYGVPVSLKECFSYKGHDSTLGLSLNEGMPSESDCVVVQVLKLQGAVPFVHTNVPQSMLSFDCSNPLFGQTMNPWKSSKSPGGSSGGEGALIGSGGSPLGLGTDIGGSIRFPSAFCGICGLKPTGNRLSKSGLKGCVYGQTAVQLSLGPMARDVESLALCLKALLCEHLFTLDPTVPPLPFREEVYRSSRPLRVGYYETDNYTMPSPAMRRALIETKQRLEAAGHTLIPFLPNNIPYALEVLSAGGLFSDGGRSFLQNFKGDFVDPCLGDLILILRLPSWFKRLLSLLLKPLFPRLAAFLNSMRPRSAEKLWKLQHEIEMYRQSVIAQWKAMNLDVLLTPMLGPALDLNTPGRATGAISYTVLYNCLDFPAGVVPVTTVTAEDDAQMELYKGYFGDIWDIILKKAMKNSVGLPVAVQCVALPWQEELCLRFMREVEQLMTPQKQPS
Kind of series: Inhibition of FAAH in rat eye homogenate assessed as blockage of […] labelling by ABPP assay. Format: tissue-based.

The target in series [6] is T6, Fatty-acid amide hydrolase 1 (Mus musculus, UniProt O08914).
T6 sequence (O08914 whole entry): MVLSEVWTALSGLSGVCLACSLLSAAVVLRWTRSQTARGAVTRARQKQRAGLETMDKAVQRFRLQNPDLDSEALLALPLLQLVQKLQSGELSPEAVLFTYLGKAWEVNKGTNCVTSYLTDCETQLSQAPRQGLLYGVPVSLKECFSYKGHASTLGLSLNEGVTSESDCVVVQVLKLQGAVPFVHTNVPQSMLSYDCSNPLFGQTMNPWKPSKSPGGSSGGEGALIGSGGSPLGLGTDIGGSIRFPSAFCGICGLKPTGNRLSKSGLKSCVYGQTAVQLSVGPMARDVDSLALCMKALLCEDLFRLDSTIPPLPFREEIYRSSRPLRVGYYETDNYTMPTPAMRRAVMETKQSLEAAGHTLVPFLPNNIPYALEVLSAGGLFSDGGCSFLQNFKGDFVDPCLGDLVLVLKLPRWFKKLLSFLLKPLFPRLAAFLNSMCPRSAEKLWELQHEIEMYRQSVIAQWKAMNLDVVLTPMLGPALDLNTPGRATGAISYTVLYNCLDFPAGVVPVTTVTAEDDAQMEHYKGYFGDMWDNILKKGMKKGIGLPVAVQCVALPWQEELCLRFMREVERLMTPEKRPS
Kind of series: Inhibition of mouse brain FAAH by competitive ABPP assay. Type of series: tissue-based.

Series [7] addresses T7, Monoglyceride lipase (Homo sapiens) (UniProt Q99685).
T7 sequence (whole entry): T2 sequence (Q99685 whole entry)
Nature of the series: Inhibition of recombinant human MAGL assessed as blockage of […] labelling at 100 uM by ABPP assay.

For eleven compounds, Papp, IC50 and inhibition results are on record in ChEMBL document CHEMBL5143693, “Design and synthesis of endocannabinoid enzyme inhibitors for ocular indications” (Bioorg Med Chem Lett, 2022).

Activity calls are given as the source filed them. No cut-off for these calls is given here.

A word on the IC50: it is the point on the concentration scale where inhibition reaches its midpoint. Consider `O=C(Oc1ccc([N+](=O)[O-])cc1)N1CCN(S(=O)(=O)c2ccc(Oc3cccc(Cl)c3)cc2)CC1`, for which, in series [1], the Papp at 18 h worked out at 0.23 ×10⁻⁶ cm/s. Also, the IC50 in series [2] came to 380 nM.

As for `O=C(Oc1ccc([N+](=O)[O-])cc1)N1CCN(S(=O)(=O)c2ccc(Oc3ncc(C(F)(F)F)cc3Cl)cc2)CC1`, the Papp at 18 h in series [1] is 0.23 ×10⁻⁶ cm/s. The compound also showed an IC50 in series [2] of 2950 nM.

As for `O=C(Oc1ccc([N+](=O)[O-])cc1)N1CCN(S(=O)(=O)c2ccc(Oc3ccccc3Cl)cc2)CC1`, the Papp at 18 h in series [1] was found to be 0.27 ×10⁻⁶ cm/s. In series [2], this compound yielded an IC50 of 1150 nM.

`O=C(Oc1ccc([N+](=O)[O-])cc1)N1CCN(S(=O)(=O)c2ccc(Oc3ccc(Cl)cc3)cc2)CC1`: in series [1], the Papp at 18 h was 0.24 ×10⁻⁶ cm/s. The IC50 against Monoglyceride lipase worked out at 2060 nM; in series [2], 153 nM.

Consider `O=C(Oc1ccc([N+](=O)[O-])cc1)N1CCN(S(=O)(=O)c2ccc(Oc3ccccc3)cc2)CC1`, for which the Papp at 18 h in series [1] turned out to be 0.23 ×10⁻⁶ cm/s. The same compound yielded an IC50 in series [2] of 322 nM.

With `O=C(Oc1ccc([N+](=O)[O-])cc1)N1CCN(S(=O)(=O)c2ccc(-c3ccc(Cl)c(Cl)c3)cc2)CC1`, the Papp at 18 h in series [1] came out at 0.28 ×10⁻⁶ cm/s. Moreover, in series [2], the IC50 was 382 nM.

As to `O=C(Oc1ccc([N+](=O)[O-])cc1)N1CCN(S(=O)(=O)c2ccc(Oc3ccc(Cl)c(Cl)c3)cc2)CC1`, the Papp at 18 h in series [1] is 0.31 ×10⁻⁶ cm/s. For the same compound, 317 nM corresponded to half-maximal inhibition in series [2] (IC50).

In general, inhibition refers to the share of the control response that was lost under treatment. Take `O=C(Oc1ccc([N+](=O)[O-])cc1)N1CCN(S(=O)(=O)c2ccc3ccccc3c2)CC1`: the inhibition in series [3] and in series [7] was 100% each time. Besides, the Papp at 18 h in series [1] was 0.26 ×10⁻⁶ cm/s. Further, the results for the IC50 (against Monoglyceride lipase; in series [6]) were 284 nM and 10.5 nM, respectively. Further, the inhibition result in series [4] and in series [5] was “Active” in each case.

With `O=C(Oc1ccc([N+](=O)[O-])cc1)N1CCN(S(=O)(=O)c2ccc(C3CCCCC3)cc2)CC1`, the Papp at 18 h in series [1] came out at 0.24 ×10⁻⁶ cm/s. In series [2], this compound gave an IC50 of 333 nM.

For `CCCCc1ccc(S(=O)(=O)N2CCN(C(=O)Oc3ccc([N+](=O)[O-])cc3)CC2)cc1`, the inhibition result in series [3], in series [4], in series [5] and in series [7] was “Active” each time. The Papp at 18 h in series [1] worked out at 0.26 ×10⁻⁶ cm/s. The IC50 at Monoglyceride lipase came out at 759 nM; in series [2], 179 nM.

As to `O=C(Oc1ccc([N+](=O)[O-])cc1)N1CCN(S(=O)(=O)c2ccc(-c3ccccc3)cc2)CC1`, in series [1], the Papp at 18 h was 0.19 ×10⁻⁶ cm/s. Besides, in series [2], the IC50 is 437 nM.
